One may read the Papp A→B as the apparent permeability from the apical to the basolateral side of a cell layer. For orientation: Papp B→A means the apparent permeability from the basolateral to the apical side of a cell layer. For orientation: Ki means a measure of affinity in units of concentration, obtained from inhibition or displacement. As a reminder, the CC50 is the concentration that lowers cell viability or growth by half.

Each structure is given as a SMILES string. “And” between values parts separate entries of the source, which are not always exact repeats. Equal entries are not always repeated. Where two headings read alike, the source gives them in different places.

Data on five molecules can be found in paper PMC10823475, “Design, Synthesis, and Evaluation of Inhibitors of Hedgehog Acyltransferase” (Journal of Medicinal Chemistry, 2024).

The test system of data set [1] is Caco-2 human colon carcinoma cell line. The data set is described as follows: Caco-2 permeability assay. The class given is in vitro ADME. The procedure:
(§1) Apparent permeability (Papp) was determined in the Caco-2 human colon carcinoma cell line. Cells were maintained in DMEM containing 10% fetal bovine serum, penicillin and streptomycin in a humidified atmosphere with 5% CO2 for 10 days. Cells were plated onto a cell culture assembly plate (Millipore, UK) and monolayer confluency was checked using a TEER electrode prior to the assay. Medium was washed off and replaced in the appropriate apical and basal wells with HBSS buffer (pH 7.4) containing compounds (10 μM, 1% DMSO). The Caco-2 plate was incubated for 2 h at 37 °C, and Lucifer yellow was used to confirm membrane integrity postassay. […] Papp was determined as follows: [drawing 1] where Vr = volume of receptical; A = surface area of monolayer; C0 = Initial compound concentration in donor.
For orientation: Caco-2 cells form a polarised layer with tight junctions and transporters.

The nature of data set [2]: Caco-2 permeability assay. It counts as in vitro ADME, human. Conditions: human; for Papp A→B at 2 h, 10 μM / Papp B→A at 2 h, 10 μM / recovery at 2 h, 10 µM: Caco-2, pH 7.4, 10 µM; for efflux ratio at 2 h, 10 µM: Caco-2, pH 7.4, read-out: Caco-2 Eflux Ratio (B>A/A>B). The procedure:
as §1

A short description of data set [3]: Microsomal incubations, mouse liver microsomes. To be noted: 1 μM. It counts as in vitro ADME. The procedure:
Metabolic stability assays were performed using a Microlab Star liquid handling workstation (Hamilton Robotics, Bonaduz, Switzerland). Test compounds (1 μM, 1% DMSO) were preincubated at 37 °C for 10 min in 0.5 mg/mL female CD1 mouse and mixed gender human liver microsomes in 10 mM phosphate buffered saline (PBS; Sigma-Aldrich Company Ltd. (Dorset, UK)). Microsomes were purchased either from Sekisui XenoTech, LLC (Kansas City, USA) or BioreclamationIVT (Frankfurt Am Main, Germany). Reactions were initiated by the addition of NADPH (final concentration 1 mM). At 0, 15, and 30 min, aliquots were removed from each incubation and quenched in 3 volumes of ice-cold methanol containing olomoucine (Sigma-Aldrich, Dorset, UK) as an internal standard. […] The percentage metabolized was calculated by comparing peak area ratio (peak area test compound/peak area of internal standard) at t = 15 and 30 min versus t = 0 min.
In general terms: Liver microsomes are vesicles of endoplasmic reticulum, rich in cytochrome P450 enzymes.

In a further data set the test system is HEK293a SHH+ cells. Description: MTS assay, cytotoxicity (72 h). It counts as cell-based. To be noted: for decrease in cell viability / cell survival: 12.5 μM. In a few lines:
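Cells plated at 5000/well, cultured 24 h, then exposed to analogues (0.14–100 μM final) in DMEM/10% FBS for 72 h. MTS/PMS added for 3 h at 37 °C and absorbance read at 490 nm; data normalised to DMSO vehicle and puromycin (2 μg/mL) wells, curves fitted with a variable-slope sigmoidal model.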

For a further data set, the target named is HHAT. The arrangement: method as in PMID 34890564, PMID 33768725. Conditions: read-out: Ki, competitive inhibitor of Pal-CoA; cited from earlier work.
[4] abbreviates: + Verapamil (P-glycoprotein inhibitor).
Where [5] appears, read: + Verapamil (P-glycoprotein inhibitor), read-out: Caco-2 A>B Recovery.
The mark [6] stands for this setting: + Verapamil (P-glycoprotein inhibitor), read-out: Caco-2 B>A Recovery.
The mark [7] stands for this setting: without Verapamil, read-out: Caco-2 A>B Recovery.
[8] abbreviates: without Verapamil, read-out: Caco-2 B>A Recovery.

For `C=CCNCC(=O)N1CCc2sccc2C1COc1ccc(Cl)cc1` (centres unmarked) [Compound 2], in data set [1], the “Caco-2 efflux” value is recorded as “no detectable efflux”. Also, the “Caco-2 permeability” value in data set [1] is “moderate-high permeability”. Also, the Papp A→B at 2 h, 10 μM in data set [2] (setting [4]) came out at 8.3 ± 0.9 ×10⁻⁶ cm/s; in data set [2] (without Verapamil), 14.5 ± 0.4 ×10⁻⁶ cm/s. The apparent permeability from basolateral to apical (Papp B→A) at 2 h, 10 μM came to 12.5 ± 1.9 ×10⁻⁶ cm/s in data set [2] (setting [4]) and 12.4 ± 2.1 ×10⁻⁶ cm/s in data set [2] (without Verapamil). For the same molecule, the recovery at 2 h, 10 µM in data set [2] (setting [5]) was determined as 41.1 ± 1%; in data set [2] (setting [6]), 51.6 ± 1%; in data set [2] (setting [7]), 56.7 ± 1.9%; in data set [2] (setting [8]), 87.8 ± 1.2%. The efflux ratio at 2 h, 10 µM in data set [2] was 0.86. For the same molecule, in data set [3], the “MLM % metabolized after 15 min” value was 90.8% and > 90%. The “MLM % metabolized after 30 min” value in data set [3] was determined as 98.4%. Besides, in the data set with HEK293a SHH+ cells, the “decrease in cell viability / cell survival” value amounted to 44%.

For `CC(=O)N1CCc2sccc2C1c1ccccc1` (centres unmarked) [Compound 5], in data set [3], the “MLM % metabolized after 15 min” value is 99.5% and > 90%; the “MLM % metabolized after 30 min” value is listed as 99.4%. Besides, in the data set on HEK293a SHH+ cells, the “decrease in cell viability / cell survival” value is on record as < 30%.

With `CCC(C)CNCC(=O)N1CCc2sccc2C1c1cccc(C)c1` (centres unmarked) [Compound 17], the Papp A→B at 2 h, 10 μM in data set [2] (setting [4]) amounted to 14.2 ± 0.8 ×10⁻⁶ cm/s; in data set [2] (without Verapamil), 17 ± 2.5 ×10⁻⁶ cm/s. Also, the results for the Papp B→A at 2 h, 10 μM in data set [2] (setting [4]) and in data set [2] (without Verapamil) were 19.8 ± 2 ×10⁻⁶ cm/s and 17.4 ± 4.1 ×10⁻⁶ cm/s, respectively. For the same molecule, the recovery at 2 h, 10 µM was 58.6 ± 0.9% in data set [2] (setting [5]), 66.6 ± 1.9% in data set [2] (setting [6]), 60.5 ± 2.4% in data set [2] (setting [7]) and 80.4 ± 2.2% in data set [2] (setting [8]). In data set [2], the efflux ratio at 2 h, 10 µM turned out to be 1.02. In addition, the “MLM % metabolized after 15 min” value in data set [3] was 99.5% and > 90%. Moreover, the “MLM % metabolized after 30 min” value in data set [3] was found to be 100.0%. For the same molecule, the “toxicity to HEK293a SHH+ cells” value in the data set on HEK293a SHH+ cells is reported as “toxic”.

For `CCC(C)CNCC(=O)N1CCc2sccc2C1c1cccc(C)n1` (centres unmarked) [Compound 22], the “Caco-2 efflux” value in data set [1] is “no detectable efflux”. Also, the “Caco-2 permeability” value in data set [1] is on record as “moderate-high permeability”. Also, the values for the Papp A→B at 2 h, 10 μM in data set [2] (setting [4]) and in data set [2] (without Verapamil) were 35.5 ± 2 ×10⁻⁶ cm/s and 39.2 ± 0.7 ×10⁻⁶ cm/s, respectively. For the same molecule, the figures for the Papp B→A at 2 h, 10 μM in data set [2] (setting [4]) and in data set [2] (without Verapamil) were 22.7 ± 3.3 ×10⁻⁶ cm/s and 29.7 ± 0.2 ×10⁻⁶ cm/s, respectively. The recovery at 2 h, 10 µM in data set [2] (setting [5]) came to 70 ± 2.5%; in data set [2] (setting [6]) it was 75.7 ± 2%; in data set [2] (setting [7]) it was 88.7 ± 0.1%; in data set [2] (setting [8]), 108 ± 3.1%. Moreover, in data set [2], the efflux ratio at 2 h, 10 µM is 0.76. Moreover, in data set [3], the “MLM % metabolized after 15 min” value is 98.1% and > 90%. In data set [3], the “MLM % metabolized after 30 min” value is given as 99.7%.

On to `Cc1cccc([C@H]2c3ccsc3CCN2C(=O)CNCC(C)C)n1` [Compound 30], for which the Ki at HHAT is 38 nM. In addition, in data set [3], the “MLM % metabolized after 15 min” value is > 90% and 95.5%; the “MLM % metabolized after 30 min” value is on record as 99.7%. Also, in the data set with HEK293a SHH+ cells, the “decrease in cell viability / cell survival” value is < 30%. For the same molecule, the CC50 in the data set with HEK293a SHH+ cells (72 h, read-out: MTS Assay (HEK293a SHH+) CC50 (CI95)) is > 100000 nM.
